Source: article PMC4322620 (Frontiers in Pharmacology, 2015)
Where a SMILES comes first, the peptide text is derived from it. [ ]: non-standard residue; d: D form. The star is where a group is joined. X1 = CC(=O)N[C@@H]1[C@@H](O[C@@H]2O[C@H](CO)[C@H](O)[C@H](O)[C@H]2O)[C@@H](O)[C@@H](CO)O[C@@H]1*; X2 = CC12CC3CC(C)(C1)CC(N*)(C3)C2; pGlu = O=C1CC[C@@H](C(=O)O)N1

Tests used:
NTS1 (HT-29 cells) = NTS1 (HT-29 cells) (Homo sapiens, UniProt P30989); assay: cell-based
[1] = target: neurotensin receptors (HT-29 cells) (Homo sapiens, UniProt P30989); format: cell-based
[2] = target: cell-surface neurotensin receptors (HT-29 cells) (Homo sapiens, UniProt P30989); format: cell-based
in vitro [3] = conditions: mouse, other tissue homogenate
in vitro [4] = conditions: rat, serum
motor impairment = conditions: mouse, in vivo

neurotensin receptors (HT-29 cells), sequence (P30989 whole entry, looked up): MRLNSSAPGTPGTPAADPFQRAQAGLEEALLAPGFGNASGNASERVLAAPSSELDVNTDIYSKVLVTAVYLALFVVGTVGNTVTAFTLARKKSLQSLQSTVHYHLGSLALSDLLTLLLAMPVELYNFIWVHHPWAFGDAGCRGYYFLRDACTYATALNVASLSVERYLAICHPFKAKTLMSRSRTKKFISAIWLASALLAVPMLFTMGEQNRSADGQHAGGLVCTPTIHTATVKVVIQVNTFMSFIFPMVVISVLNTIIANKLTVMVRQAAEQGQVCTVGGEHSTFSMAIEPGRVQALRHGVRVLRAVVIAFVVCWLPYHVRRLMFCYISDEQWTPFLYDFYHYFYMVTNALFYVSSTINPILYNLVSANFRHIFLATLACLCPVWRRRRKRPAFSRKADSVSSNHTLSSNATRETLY
NTS1 (HT-29 cells), sequence (P30989 whole entry, looked up): as above
cell-surface neurotensin receptors (HT-29 cells), sequence (P30989 whole entry, looked up): as above

CC[C@H](C)[C@H](NC(=O)[C@H](Cc1ccc(O)cc1)NC(=O)[C@@H]1CCCN1C(=O)[C@H](CCCCN)NC(=O)[C@H](CCCCN)NC(=O)[C@@H](NC(=O)[C@H](C)NC(=O)[C@H](CC(N)=O)NC(=O)[C@H](CO)NC(=O)CNC(=O)CNC(=O)[C@H](CCC(=O)O)NC(=O)[C@H](CCC(=O)O)NC(=O)[C@H](CO)NC(=O)[C@@H]1CCC(=O)N1)[C@@H](C)O[C@H]1O[C@H](CO)[C@H](O)[C@H](O[C@@H]2O[C@H](CO)[C@H](O)[C@H](O)[C@H]2O)[C@H]1NC(C)=O)C(=O)N[C@@H](CC(C)C)C(=O)O [Contulakin-G] ([pGlu]SEEGGSNAT(X1)KKPYIL-OH)
EC50 (NTS1 (HT-29 cells)): 32.4 ± 14.5 nM
DC50 [1]: 444 ± 41 nM
DC50/EC50 [1]: 14
levels of cell-surface neurotensin receptors after agonist exposure [2]: significantly higher levels
half-life (in vitro [3]): > 2.67 h
half-life (in vitro [4]): > 16 h

CC[C@H](C)[C@H](NC(=O)[C@H](Cc1ccc(O)cc1)NC(=O)[C@@H]1CCCN1C(=O)[C@H](CCCCN)NC(=O)[C@H](CCCCN)NC(=O)[C@H](CCC(=O)NC12CC3CC(C)(CC(C)(C3)C1)C2)NC(=O)[C@H](CCCCN)NC(=O)[C@H](CC(N)=O)NC(=O)[C@H](CO)NC(=O)CNC(=O)CNC(=O)[C@H](CCC(=O)O)NC(=O)[C@H](CCC(=O)O)NC(=O)[C@H](CO)NC(=O)[C@@H]1CCC(=O)N1)C(=O)N[C@@H](CC(C)C)C(=O)O [memantine-Contulakin-G] ([pGlu]SEEGGSNKE(X2)KKPYIL-OH)
rotorod toxicity (motor impairment): no rotorod toxicity
